Consider one compound from patent publication US20090018317A1, “Reactive dyestuffs with alkylthio group and beta-sulfatoethysulfone group” (Everlight USA, Inc., priority 2007, published 2009).

The structures appear in SMILES notation.

This data set in a line: Alkali-resistant solubility test (filtration of dyestuff in alkali solution). Particulars: aqueous alkali solution (Na2SiO2 and NaOH), aqueous buffer; Na2SiO2 50°Be′ = 100 g/L, NaOH 38°Be′ = 30 ml/L; filtered through No. 1 filter paper. The format is physicochemical. As to the method: First, the dyestuffs of the formula (A) and the formula (1), taken with proper amounts in accordance to a preliminary test, are respectively dissolved in water. The alkali solution including 100 g/L 50°Be′ Na2SiO2 and 30 ml/L 38°Be′ NaOH is added therein, respectively. The mixture samples respectively are filtered through the No. 1 filter paper of Toyo Rosh Kaisha, Ltd. in order to estimate how many solids are residual and then to determine the alkali-resistant solubility.

A word on the solubility: it is the dissolved amount per volume that the medium holds. A low value points to a poorly soluble substance.

For `CCN(c1cccc(S(=O)(=O)CCOS(=O)(=O)O)c1)c1nc(Nc2cc(S(=O)(=O)O)cc3c2[O][Cu-]24[O]C(=O)c5ccc(S(=O)(=O)O)cc5[N]2N=C(c2ccccc2)N=[N+]34)nc(SCC(=O)O)n1` (stereo not shown) [formula (1)], the solubility was over 70 mg/mL.
